Experimental data: patent US7632972B2, “Compounds and methods for treatment of cancer and modulation of programmed cell death for melanoma and other cancer cells” (The Board of Trustees of the University of Illionis, priority 2003, dated 2009)

tested on: U-937 cells; experiment: High-throughput cell death assay on library members (MTS/PMS); format: cell-based, human; settings: library members at 100 μM, 24 hours
Experimental: A three-tiered system was devised to identify compounds that selectively induce apoptosis in cancer cells. First, all compounds were screened at 100 μM in a high-throughput manner for their ability to induce death in two cancer cell lines, HL-60 (leukemia) and U-937 (lymphoma).
Test compounds were transferred into the wells using a 96-pin transfer apparatus (V & P Scientific, San Diego Calif.) that transfers 0.2 μL of compound. The compounds were made up as 50 mM stock solutions in 100% EtOH, so one transfer gave a final concentration of 100 μM. Controls were performed in which only EtOH (containing no compound) was pin-transferred into wells containing cells. The cells were incubated with the compounds for 24 hours, and then cell death was quantitated.

Point of comparison: COc1ccc([C@H](O)CNC(=O)/C=C/c2ccc(O)c(O)c2)cc1 [Compound 14-C], “Induction of death in U-937 cells (percentages of cell death)” value −15%. Against it:
- CO[C@H](CNC(=O)/C=C/c1ccc(O)cc1)c1ccc(O)cc1 [Compound 9-B] — higher, 20%
- COc1cc(/C=C/C(=O)NC[C@@H](OC)c2ccccc2)ccc1O [Compound 8-D] — higher, 20%
- COc1ccc(CCNC(=O)/C=C/c2ccc(O)c(O)c2)cc1 [Compound 18-C] — higher, 26%
- COc1cc(/C=C/C(=O)NC[C@@H](OC)c2ccccc2)cc(OC)c1OC [Compound 8-F] — higher, 31%
- O=C(/C=C/c1ccc(O)cc1)NCCc1ccccc1 [Compound 16-B] — higher, 66%
- COc1cc(/C=C/C(=O)NCCc2ccc(O)cc2)cc(OC)c1OC [Compound 17-F] — higher, 9%
- COc1cc(/C=C/C(=O)NC[C@@H](OC)c2ccc(O)cc2)cc(OC)c1OC [Compound 9-F] — higher, 13%
- O=C(/C=C/c1ccc(O)c(O)c1)NC[C@@H](O)c1ccc(O)cc1 [Compound 13-C] — lower, −36%
- COc1ccc([C@@H](CNC(=O)/C=C/c2ccc(O)cc2)OC)cc1 [Compound 10-B] — higher, 60%
- COc1cc(/C=C/C(=O)NC[C@H](O)c2ccc(O)cc2)cc(OC)c1O [Compound 15-G] — higher, 47%
- COc1ccc(/C=C/C(=O)NCCc2ccc(O)cc2)cc1O [Compound 17-E] — higher, 18%
- COc1cccc(/C=C/C(=O)NCCc2ccccc2)c1 [Compound 16-H] — higher, 57%
- COc1ccc([C@H](O)CNC(=O)/C=C/c2ccccc2)cc1 [Compound 14-A] — higher, 28%
- COc1ccc(CCNC(=O)/C=C/c2ccc(O)c(OC)c2)cc1 [Compound 18-D] — higher, 66%
- O=C(/C=C/c1ccccc1)NC[C@H](O)c1ccc(O)cc1 [Compound 15-A] — higher, 27%
- COc1cccc(/C=C/C(=O)NC[C@@H](O)c2ccccc2)c1 [Compound 12-H] — higher, 51%
- COc1ccc([C@@H](CNC(=O)/C=C/c2cc(OC)c(OC)c(OC)c2)OC)cc1 [Compound 10-F] — higher, 45%
- COc1cc(/C=C/C(=O)NC[C@@H](O)c2ccccc2)cc(OC)c1OC [Compound 12-F] — higher, 33%
- CO[C@H](CNC(=O)/C=C/c1ccc(O)c(O)c1)c1ccccc1 [Compound 8-C] — higher, −5%
- COc1cccc(/C=C/C(=O)NC[C@@H](O)c2ccc(O)cc2)c1 [Compound 13-H] — higher, 43%
- O=C(/C=C/c1ccccc1)NCCc1ccc(O)cc1 [Compound 17-A] — higher, 48%
- COc1ccc(/C=C/C(=O)NC[C@H](O)c2ccc(O)cc2)cc1O [Compound 15-E] — higher, 22%
- COc1ccc(CCNC(=O)/C=C/c2cc(OC)c(O)c(OC)c2)cc1 [Compound 18-G] — higher, 35%
- O=C(/C=C/c1ccc(O)c(O)c1)NCCc1ccccc1 [Compound 16-C] — higher, 24%
- COc1cccc(/C=C/C(=O)NCCc2ccc(O)cc2)c1 [Compound 17-H] — higher, 41%
- O=C(/C=C/c1ccc(O)c(O)c1)NC[C@H](O)c1ccc(O)cc1 [Compound 15-C] — lower, −29%
- COc1ccc([C@@H](CNC(=O)/C=C/c2cccc(OC)c2)OC)cc1 [Compound 10-H] — higher, 72%
- O=C(/C=C/c1ccccc1)NCCc1ccccc1 [Compound 16-A] — higher, 58%
- COc1cc(/C=C/C(=O)NC[C@@H](OC)c2ccccc2)cc(OC)c1O [Compound 8-G] — higher, −3%
- COc1cc(/C=C/C(=O)NC[C@@H](OC)c2ccc(O)cc2)cc(OC)c1O [Compound 9-G] — higher, −7%
- COc1cc(/C=C/C(=O)NC[C@H](OC)c2ccc(O)cc2)cc(OC)c1OC [Compound 11-F] — higher, 27%
- CO[C@H](CNC(=O)/C=C/c1ccccc1)c1ccc(O)cc1 [Compound 9-A] — higher, 24%
- COc1ccc(CCNC(=O)/C=C/c2ccccc2)cc1 [Compound 18-A] — higher, 56%
- COc1ccc([C@H](O)CNC(=O)/C=C/c2cc(OC)c(O)c(OC)c2)cc1 [Compound 14-G] — higher, 48%
- COc1ccc([C@H](O)CNC(=O)/C=C/c2ccc(O)c(OC)c2)cc1 [Compound 14-D] — higher, 59%
- COc1ccc(/C=C/C(=O)NC[C@@H](OC)c2ccc(O)cc2)cc1O [Compound 9-E] — higher, 41%
- COc1ccc(CCNC(=O)/C=C/c2ccc(O)cc2)cc1 [Compound 18-B] — higher, 17%
- COc1ccc(CCNC(=O)/C=C/c2ccc(OC)c(O)c2)cc1 [Compound 18-E] — higher, 73%
- COc1ccc(CCNC(=O)/C=C/c2cc(OC)c(OC)c(OC)c2)cc1 [Compound 18-F] — higher, 40%
- COc1cc(/C=C/C(=O)NC[C@H](OC)c2ccc(O)cc2)cc(OC)c1O [Compound 11-G] — higher, −11%
- COc1cc(/C=C/C(=O)NCCc2ccc(O)cc2)ccc1O [Compound 17-D] — higher, 58%
- COc1ccc(/C=C/C(=O)NC[C@@H](O)c2ccc(O)cc2)cc1O [Compound 13-E] — higher, 43%
- O=C(/C=C/c1ccc(O)c(O)c1)NC[C@@H](O)c1ccccc1 [Compound 12-C] — higher, 27%
- COc1ccc([C@@H](CNC(=O)/C=C/c2ccc(OC)c(O)c2)OC)cc1 [Compound 10-E] — higher, 55%
- COc1ccc(/C=C/C(=O)NC[C@@H](O)c2ccccc2)cc1O [Compound 12-E] — higher, 28%
- COc1ccc([C@@H](CNC(=O)/C=C/c2ccc(O)c(O)c2)OC)cc1 [Compound 10-C] — higher, −8%
- CO[C@@H](CNC(=O)/C=C/c1ccccc1)c1ccc(O)cc1 [Compound 11-A] — higher, 26%
- COc1ccc([C@H](O)CNC(=O)/C=C/c2ccc(OC)c(O)c2)cc1 [Compound 14-E] — higher, 35%
- COc1cc(/C=C/C(=O)NCCc2ccccc2)cc(OC)c1OC [Compound 16-F] — higher, 30%
- COc1ccc(/C=C/C(=O)NCCc2ccccc2)cc1O [Compound 16-E] — higher, 60%
- O=C(/C=C/c1ccc(O)cc1)NC[C@H](O)c1ccc(O)cc1 [Compound 15-B] — higher, 39%
- COc1cc(/C=C/C(=O)NCCc2ccccc2)cc(OC)c1O [Compound 16-G] — higher, 20%
